Patent US11840497B2, “4-(p-quinonyl)-2-hydroxybutanamide derivatives for treatment of mitochondrial diseases” (PTC Therapeutics, Inc., priority 2007, dated 2023)

Key:
Assay type in all cases: cell-based
[1] = system: Human dermal fibroblasts from Friedreich's Ataxia patients; test: Rescue of BSO-stressed FRDA fibroblasts (Example A); conditions: FRDA fibroblasts GM04078, 1 mM BSO, read-out: protection against FRDA, EC50
Description: Test samples, 4 reference compounds (idebenone, decylubiquinone, Trolox and α-tocopherol acetate), and solvent controls were tested for their ability to rescue FRDA fibroblasts stressed by addition of L-buthionine (S,R)-sulfoximine (BSO), as described in Jauslin et al., Hum. Mol. Genet. […] Mol. Genet. […] This specific BSO-mediated cell death can be prevented by administration of antioxidants or molecules involved in the antioxidant pathway, such as α-tocopherol, selenium, or small molecule glutathione peroxidase mimetics. However, antioxidants differ in their potency, i.e. the concentration at which they are able to rescue BSO-stressed FRDA fibroblasts.
Fetal Calf Serum was obtained from PAA Laboratories. Basic fibroblast growth factor and epidermal growth factor were purchased from PeproTech. Penicillin-streptomycin-glutamine mix, L-buthionine (S,R)-sulfoximine, (+)-α-tocopherol acetate, decylubiquinone, and insulin from bovine pancreas were purchased from Sigma. Trolox (6-Hydroxy-2,5,7,8-tetramethylchroman-2-carboxylic acid) was obtained from Fluka. Idebenone was obtained from Chemo Iberica. Calcein AM was purchased from Molecular Probes. Cell culture medium was made by combining 125 ml M199 EBS, 50 ml Fetal Calf Serum, 100 U/ml penicillin, 100 μg/ml streptomycin, 2 mM glutamine, 10 μg/ml insulin, 10 ng/ml EGF, and 10 ng/ml bFGF; MEM EBS was added to make the volume up to 500 ml. […] During the course of the experiments, this solution was stored at +4° C. The cells were obtained from the Coriell Cell Repositories (Camden, NJ; repository number GM04078) and grown in 10 cm tissue culture plates. Every third day, they were split at a 1:3 ratio.
The test samples were supplied in 1.5 ml glass vials. […] Once dissolved, they were stored at −20° C. Reference antioxidants (idebenone, decylubiquinone, α-tocopherol acetate and trolox) were dissolved in DMSO.
Test samples were screened according to the following protocol: A culture with FRDA fibroblasts was started from a 1 ml vial with approximately 500,000 cells stored in liquid nitrogen. […] Once confluent, fibroblasts were harvested. […] The remaining cells were distributed in 10 cm cell culture plates (500,000 cells/plate) for propagation. The plates were incubated overnight at 37° C. in a atmosphere with 95% humidity and 5% CO2 to allow attachment of the cells to the culture plate.
MTP medium (243 μl) was added to a well of the microtiter plate. […] Serial dilutions from the master solution were made. The period between the single dilution steps was kept as short as possible (generally less than 1 second).
Plates were kept overnight in the cell culture incubator. The next day, 10 μl of a 10 mM BSO solution were added to the wells, resulting in a 1 mM final BSO concentration. Forty-eight hours later, three plates were examined under a phase-contrast microscope to verify that the cells in the 0% control (wells E1-H1) were clearly dead. The medium from all plates was discarded, and the remaining liquid was removed by gently tapping the plate inversed onto a paper towel.
The plates were incubated for 50-70 minutes at room temperature. After that time the PBS was discarded, the plate gently tapped on a paper towel and fluorescence (excitation/emission wavelengths of 485 nm and 525 nm, respectively) was read on a Gemini fluorescence reader. Data was imported into Microsoft Excel (EXCEL is a registered trademark of Microsoft Corporation for a spreadsheet program) and used to calculate the EC50 concentration for each compound.
The compounds were tested three times, i.e., the experiment was performed three times, the passage number of the cells increasing by one with every repetition.
The viability of non-BSO treated fibroblasts was set as 100%, and the viability of the BSO- and compound-treated cells was calculated as relative to this value.

[2] = system: human dermal fibroblasts from Huntington's patients; test: Rescue of BSO-stressed fibroblasts from Huntington's patients (Example B); conditions: Fibroblast, Huntington's fibroblasts GM 04281, screen as Example A, read-out: protection against Hungtington's, EC50
Description: The compounds were tested for their ability to rescue human dermal fibroblasts from Huntington's patients from oxidative stress.

[3] = system: human dermal fibroblasts from LHON patients; test: Rescue of BSO-stressed fibroblasts from LHON patients (Example C); conditions: Fibroblast, LHON fibroblasts GM03858, screen as Example A, read-out: protection against LHON, EC50
Description: The compounds were tested for their ability to rescue human dermal fibroblasts from LHON patients from oxidative stress.

Row | Compound | EC50 [1] [nM] | EC50 [2] [nM] | EC50 [3] [nM]
1 | CC1=C(C)C(=O)C(CCC(C)(O)C(=O)NCCCO)=C(C)C1=O (stereo not drawn) [Example 9, 2-Hydroxy-N-(3-hydroxypropyl)-2-methyl-4-(2,4,5-trimethyl-3,6-dioxocyclohexa-1,4-dienyl)butanamide] | < 100 | < 100 | < 100
2 | CC(=O)N1CCN(C(=O)[C@@](C)(O)CCC2=C(C)C(=O)C(C)=C(C)C2=O)CC1 [(S)-2-(4-(4-acetylpiperazin-1-yl)-3-hydroxy-3-methyl-4-oxobutyl)-3,5,6-trimethylcyclohexa-2,5-diene-1,4-dione] | < 100 | < 100 | < 100
3 | CC1=C(C)C(=O)C(CCC(C)(O)C(=O)NCCc2ccc(F)cc2)=C(C)C1=O (stereo not drawn) [N-(4-fluorophenethyl)-2-hydroxy-2-methyl-4-(2,4,5-trimethyl-3,6-dioxocyclohexa-1,4-dienyl)butanamide] | < 100 | < 100 | < 100
4 | CC1=C(C)C(=O)C(CCC(C)(O)C(=O)NC(C)CO)=C(C)C1=O (stereo not drawn) [Example 19, 2-Hydroxy-N-(1-hydroxypropan-2-yl)-2-methyl-4-(2,4,5-trimethyl-3,6-dioxocyclohexa-1,4-dienyl)butanamide] | < 100 | < 100 | < 100
5 | CC(=O)N1CCN(C(=O)[C@](C)(O)CCC2=C(C)C(=O)C(C)=C(C)C2=O)CC1 [(R)-2-(4-(4-acetylpiperazin-1-yl)-3-hydroxy-3-methyl-4-oxobutyl)-3,5,6-trimethylcyclohexa-2,5-diene-1,4-dione] | < 100 | < 100 | < 100
6 | CC1=C(C)C(=O)C(CCC(C)(O)C(=O)NCCCN2CCOCC2)=C(C)C1=O (stereo not drawn) [Example 33, 2-Hydroxy-2-methyl-N-(3-morpholinopropyl)-4-(2,4,5-trimethyl-3,6-dioxocyclohexa-1,4-dienyl)butanamide] | < 100 | < 100 | 
7 | CC1=C(C)C(=O)C(CCC(C)(O)C(=O)NCc2ccc(F)cc2)=C(C)C1=O (stereo not drawn) [N-(4-fluorobenzyl)-2-hydroxy-2-methyl-4-(2,4,5-trimethyl-3,6-dioxocyclohexa-1,4-dienyl)butanamide] | < 100 | < 100 | < 100
8 | CC1=C(C)C(=O)C(CCC(C)(O)C(=O)NCc2cccc(Cl)c2)=C(C)C1=O (stereo not drawn) [N-(3-chlorobenzyl)-2-hydroxy-2-methyl-4-(2,4,5-trimethyl-3,6-dioxocyclohexa-1,4-dienyl)butanamide] | < 100 | < 100 | < 100
9 | CC1=C(C)C(=O)C(CCC(C)(O)C(=O)Nc2ccc(Cl)cc2)=C(C)C1=O (stereo not drawn) [N-(4-chlorophenyl)-2-hydroxy-2-methyl-4-(2,4,5-trimethyl-3,6-dioxocyclohexa-1,4-dienyl)butanamide] | < 100 | < 100 | < 100
10 | COc1ccc(NC(=O)C(C)(O)CCC2=C(C)C(=O)C(C)=C(C)C2=O)cc1 (stereo not drawn) [2-hydroxy-N-(4-methoxyphenyl)-2-methyl-4-(2,4,5-trimethyl-3,6-dioxocyclohexa-1,4-dienyl)butanamide] | < 100 | < 100 | 
11 | CC1=C(C)C(=O)C(CCC(C)(O)C(=O)N(CCO)CCO)=C(C)C1=O (stereo not drawn) [Example 35, 2-Hydroxy-N,N-bis(2-hydroxyethyl)-2-methyl-4-(2,4,5-trimethyl-3,6-dioxocyclohexa-1,4-dienyl)butanamide] | < 100 | < 100 | 
12 | CC1=C(C)C(=O)C(CCC(C)(O)C(=O)N2CCN(C)CC2)=C(C)C1=O (stereo not drawn) [Example 14, 2-(3-Hydroxy-3-methyl-4-(4-methylpiperazin-1-yl)-4-oxobutyl)-3,5,6-trimethylcyclohexa-2,5-diene-1,4-dione] | < 100 | < 100 | 
13 | CC1=C(C)C(=O)C(CCC(C)(O)C(=O)NCCCN2CCCC2=O)=C(C)C1=O (stereo not drawn) [Example 29, 2-Hydroxy-2-methyl-N-(3-(2-oxopyrrolidin-1-yl)-propyl)-4-(2,4,5-trimethyl-3,6-dioxocyclohexa-1,4-dienyl)butanamide] |  | < 100 | 
